Reference: the supplement of paper PMC11208160

experiment: recombinant UMI read abundance after kanamycin selection (control-corrected) (log10(CPM+1)); higher = more efficient recombination; extreme values may be limits of the assay; sequences stand for … in AGTGCAGAGAAAATCGGCCAGTTTTCTCTGCCTGCAGTCCGCATGCCGTGGGACCCCTTGGGTTCTAACCTGTTGCCTAGATTTATGCAGCGGACTGCCTTTCTCCCAAAGTGATAAACCGG…AGGTTGGTTTCACT; site = the 11-nt donor
Outline: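 Values are reported as log10(CPM+1), obtained by converting sequencing counts to CPM, averaging replicates and scaling by control-derived factors. The counts came from recombinant UMIs amplified by PCR across the donor–target junction. These UMIs came from a pooled Escherichia coli screen of donor and donor-binding-loop pairs for the IS621 bridge recombinase, plated with IPTG (0.07 mM) plus kanamycin or left unselected, in two replicates each.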
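Note: IS621 bridge recombinase in Escherichia coli cells against a fixed T5 target plasmid.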

Sequence | recombinant UMI read abundance (log10)
CTGTAAACATGGACCGGTTTTCCCGGTAATCCGTATTTGCA (site CTGAAAACTTG) | 0
CTGTAAACATGGACCGGTTTTCCCGGTAATCCGTATTTGCA (site CTGCAAACTTG) | 0.604
CTGTAAACATGGACCGGTTTTCCCGGTAATCCGTATTTGCA (site CTGGAAACTTG) | 0
CTGTAAACATGGACCGGTTTTCCCGGTAATCCGTATTTGCA (site CTGTAAACTTG) | 1.29
CTGTACCCATGGACCGGTTTTCCCGGTAATCCGTATTTGTA (site CTGTACCCTTA) | 0.461
CTGTCTCCATGGACCGGTTTTCCCGGTAATCCGTATTTGTC (site CTGTCTCCTGA) | 0.331
CTTAGATCATGGACCGGTTTTCCCGGTAATCCGTATTTGGG (site CTTAGATCTCC) | 0.475
CTTATAACATGGACCGGTTTTCCCGGTAATCCGTATTTGGA (site CTTATAACTTC) | 1
CTTCAATCATGGACCGGTTTTCCCGGTAATCCGTATTTGGT (site CTTCAATCTAC) | 1.96
CTTCCGACATGGACCGGTTTTCCCGGTAATCCGTATTTGAC (site CTTCCGACTGT) | 2.04
CTTCCTACATGGACCGGTTTTCCCGGTAATCCGTATTTGAG (site CTACCTACTCT) | 0.0179
CTTCCTACATGGACCGGTTTTCCCGGTAATCCGTATTTGAG (site CTCCCTACTCT) | 0.0168
CTTCCTACATGGACCGGTTTTCCCGGTAATCCGTATTTGAG (site CTGCCTACTCT) | 0.0339
CTTCCTACATGGACCGGTTTTCCCGGTAATCCGTATTTGAG (site CTTCCTACTCT) | 0.0166
CTTCGAGCATGGACCGGTTTTCCCGGTAATCCGTATTTGCA (site ATTCGAGCTTG) | 0.00677
CTTCGAGCATGGACCGGTTTTCCCGGTAATCCGTATTTGCA (site CTTCGAGCTTG) | 1.03
CTTCGAGCATGGACCGGTTTTCCCGGTAATCCGTATTTGCA (site GTTCGAGCTTG) | 0
CTTCGAGCATGGACCGGTTTTCCCGGTAATCCGTATTTGCA (site TTTCGAGCTTG) | 0
CTTCTACCATGGACCGGTTTTCCCGGTAATCCGTATTTGCT (site CTACTACCTAG) | 0

Sequence | recombinant UMI read abundance (log10)
CTTCTACCATGGACCGGTTTTCCCGGTAATCCGTATTTGCT (site CTCCTACCTAG) | 0.00753
CTTCTACCATGGACCGGTTTTCCCGGTAATCCGTATTTGCT (site CTGCTACCTAG) | 0
CTTCTACCATGGACCGGTTTTCCCGGTAATCCGTATTTGCT (site CTTCTACCTAG) | 0.00449
CTTCTATCATGGACCGGTTTTCCCGGTAATCCGTATTTGGT (site CTTCTATCTAC) | 1.58
CTTCTCCCATGGACCGGTTTTCCCGGTAATCCGTATTTGTA (site CTTCTCACTTA) | 0.0088
CTTCTCCCATGGACCGGTTTTCCCGGTAATCCGTATTTGTA (site CTTCTCCCTTA) | 0.487
CTTCTCCCATGGACCGGTTTTCCCGGTAATCCGTATTTGTA (site CTTCTCGCTTA) | 0.0148
CTTCTCCCATGGACCGGTTTTCCCGGTAATCCGTATTTGTA (site CTTCTCTCTTA) | 0.837
CTTCTCGCATGGACCGGTTTTCCCGGTAATCCGTATTTGCG (site CTTCTCGCTCG) | 0.0091
CTTGCCCCATGGACCGGTTTTCCCGGTAATCCGTATTTGTA (site CTTGCCCCTTA) | 0.366
CTTGCTTCATGGACCGGTTTTCCCGGTAATCCGTATTTGAT (site CTTGCTTCTAT) | 0.0131
CTTGGAACATGGACCGGTTTTCCCGGTAATCCGTATTTGTT (site CATGGAACTAA) | 0.791
CTTGGAACATGGACCGGTTTTCCCGGTAATCCGTATTTGTT (site CCTGGAACTAA) | 0.00748
CTTGGAACATGGACCGGTTTTCCCGGTAATCCGTATTTGTT (site CGTGGAACTAA) | 0.00508
CTTGGAACATGGACCGGTTTTCCCGGTAATCCGTATTTGTT (site CTTGGAACTAA) | 1.36
CTTGTAACATGGACCGGTTTTCCCGGTAATCCGTATTTGCA (site CTTGTAACTTG) | 0.147
CTTGTATCATGGACCGGTTTTCCCGGTAATCCGTATTTGAC (site CTAGTATCTGT) | 0
CTTGTATCATGGACCGGTTTTCCCGGTAATCCGTATTTGAC (site CTCGTATCTGT) | 0
CTTGTATCATGGACCGGTTTTCCCGGTAATCCGTATTTGAC (site CTGGTATCTGT) | 0

Sequence | recombinant UMI read abundance (log10)
CTTGTATCATGGACCGGTTTTCCCGGTAATCCGTATTTGAC (site CTTGTATCTGT) | 0
CTTGTATCATGGACCGGTTTTCCCGGTAATCCGTATTTGGC (site CTAGTATCTGT) | 0.315
CTTGTATCATGGACCGGTTTTCCCGGTAATCCGTATTTGGC (site CTTGTATCTGC) | 0.486
CTTTAAACATGGACCGGTTTTCCCGGTAATCCGTATTTGTC (site CTTTAAACTGA) | 0
CTTTTCTCATGGACCGGTTTTCCCGGTAATCCGTATTTGTA (site CTTATCTCTTA) | 0
CTTTTCTCATGGACCGGTTTTCCCGGTAATCCGTATTTGTA (site CTTCTCTCTTA) | 0.274
CTTTTCTCATGGACCGGTTTTCCCGGTAATCCGTATTTGTA (site CTTGTCTCTTA) | 0.00384
CTTTTCTCATGGACCGGTTTTCCCGGTAATCCGTATTTGTA (site CTTTTCTCTTA) | 0.0916
GAAACTACATGGACCGGTTTTCCCGGTAATCCGTATTTGCC (site GAAACTACTGG) | 1.88
GAACACCCATGGACCGGTTTTCCCGGTAATCCGTATTTGGA (site GAACACCCTTC) | 0.00915
GAACATACATGGACCGGTTTTCCCGGTAATCCGTATTTGAA (site GAACATACTTT) | 1.69
GAACATTCATGGACCGGTTTTCCCGGTAATCCGTATTTGTT (site GAAAATTCTAA) | 0
GAACATTCATGGACCGGTTTTCCCGGTAATCCGTATTTGTT (site GAACATTCTAA) | 2.03
GAACATTCATGGACCGGTTTTCCCGGTAATCCGTATTTGTT (site GAAGATTCTAA) | 0
GAACATTCATGGACCGGTTTTCCCGGTAATCCGTATTTGTT (site GAATATTCTAA) | 0.0114
GAACCGACATGGACCGGTTTTCCCGGTAATCCGTATTTGGT (site GAACCGACTAC) | 0.724
GAACGGCCATGGACCGGTTTTCCCGGTAATCCGTATTTGCA (site GAAAGGCCTTG) | 0
GAACGGCCATGGACCGGTTTTCCCGGTAATCCGTATTTGCA (site GAACGGCCTTG) | 0.812
GAACGGCCATGGACCGGTTTTCCCGGTAATCCGTATTTGCA (site GAAGGGCCTTG) | 0
